In the NIST ThermoML archive (doi:10.1021/je400134d):
Numbers after ± are expanded uncertainties.

Test: xn = mol fraction of the nth substance listed
Conditions: 100 kPa, Liquid; for speed of sound: Pulse-echo method; for mass density: Vibrating tube method

CNc1ccccc1 [N-methylaniline] + C1CCCCC1
Conditions	mass density [kg/m3]	speed of sound [m/s]
293.15 K, x1 = 0.0516	787.947 ± 0.25	1285.7 ± 1.4
293.15 K, x1 = 0.1047	798.075 ± 0.25	1294.4 ± 1.4
293.15 K, x1 = 0.1522	807.416 ± 0.26	1303 ± 1.4
293.15 K, x1 = 0.2023	817.479 ± 0.27	1313.2 ± 1.5
293.15 K, x1 = 0.2482	826.755 ± 0.27	1322.9 ± 1.5
293.15 K, x1 = 0.3018	837.718 ± 0.29	1335.3 ± 1.6
293.15 K, x1 = 0.3462	846.906 ± 0.3	1346.3 ± 1.6
293.15 K, x1 = 0.4049	859.091 ± 0.32	1362 ± 1.7
293.15 K, x1 = 0.4478	868.011 ± 0.34	1374.1 ± 1.7
293.15 K, x1 = 0.4972	878.435 ± 0.36	1389.1 ± 1.8
293.15 K, x1 = 0.5444	888.383 ± 0.39	1404.1 ± 1.8
293.15 K, x1 = 0.5942	898.936 ± 0.42	1420.7 ± 1.9
293.15 K, x1 = 0.6445	909.64 ± 0.45	1438.3 ± 1.9
293.15 K, x1 = 0.6931	920.029 ± 0.49	1456 ± 2
293.15 K, x1 = 0.7564	933.633 ± 0.55	1480.3 ± 2.1
293.15 K, x1 = 0.7917	941.225 ± 0.58	1494.2 ± 2.1
293.15 K, x1 = 0.8372	951.07 ± 0.63	1512.7 ± 2.2
293.15 K, x1 = 0.89	962.5 ± 0.69	1534.8 ± 2.2
293.15 K, x1 = 0.9446	974.383 ± 0.76	1558.2 ± 2.3
298.15 K, x1 = 0.0673	786.236 ± 0.25	1264.5 ± 1.4
298.15 K, x1 = 0.1073	793.946 ± 0.25	1271.7 ± 1.4
298.15 K, x1 = 0.1609	804.548 ± 0.26	1282 ± 1.4
298.15 K, x1 = 0.2065	813.772 ± 0.27	1291.8 ± 1.5
298.15 K, x1 = 0.2536	823.353 ± 0.28	1302.3 ± 1.5
298.15 K, x1 = 0.2963	832.165 ± 0.28	1312.6 ± 1.6
298.15 K, x1 = 0.3554	844.401 ± 0.3	1327.8 ± 1.6
298.15 K, x1 = 0.3981	853.363 ± 0.32	1339.6 ± 1.7
298.15 K, x1 = 0.4479	863.765 ± 0.34	1354 ± 1.7
298.15 K, x1 = 0.5055	875.962 ± 0.37	1371.8 ± 1.8
298.15 K, x1 = 0.5537	886.222 ± 0.39	1387.5 ± 1.8
298.15 K, x1 = 0.5968	895.414 ± 0.42	1402.5 ± 1.9
298.15 K, x1 = 0.6482	906.388 ± 0.46	1420.6 ± 1.9
298.15 K, x1 = 0.6939	916.254 ± 0.49	1437.6 ± 2
298.15 K, x1 = 0.753	928.945 ± 0.54	1460.4 ± 2.1
298.15 K, x1 = 0.795	938.08 ± 0.58	1477.2 ± 2.1
298.15 K, x1 = 0.8347	946.748 ± 0.62	1493.6 ± 2.2
298.15 K, x1 = 0.8896	958.645 ± 0.69	1516.7 ± 2.2
298.15 K, x1 = 0.9399	969.599 ± 0.75	1538.5 ± 2.3
303.15 K, x1 = 0.0581	779.854 ± 0.25	1239.8 ± 1.4
303.15 K, x1 = 0.1038	788.651 ± 0.25	1248.4 ± 1.4
303.15 K, x1 = 0.1557	798.906 ± 0.26	1258.8 ± 1.4
303.15 K, x1 = 0.2015	808.134 ± 0.27	1268.8 ± 1.5
303.15 K, x1 = 0.2526	818.565 ± 0.28	1280.6 ± 1.5
303.15 K, x1 = 0.2975	827.884 ± 0.29	1291.7 ± 1.6
303.15 K, x1 = 0.3479	838.328 ± 0.3	1304.9 ± 1.6
303.15 K, x1 = 0.3974	848.695 ± 0.32	1318.7 ± 1.7
303.15 K, x1 = 0.451	859.961 ± 0.34	1334.5 ± 1.7
303.15 K, x1 = 0.5005	870.442 ± 0.36	1351.5 ± 1.8
303.15 K, x1 = 0.5512	881.294 ± 0.39	1366.7 ± 1.8
303.15 K, x1 = 0.5922	890.064 ± 0.42	1380.8 ± 1.9
303.15 K, x1 = 0.6575	904.033 ± 0.46	1404.2 ± 1.9
303.15 K, x1 = 0.6956	912.351 ± 0.49	1418.6 ± 2
303.15 K, x1 = 0.7501	924.185 ± 0.54	1439.9 ± 2.1
303.15 K, x1 = 0.7995	934.921 ± 0.59	1459.7 ± 2.1
303.15 K, x1 = 0.8447	944.844 ± 0.64	1478.6 ± 2.2
303.15 K, x1 = 0.8956	955.901 ± 0.69	1500 ± 2.2
303.15 K, x1 = 0.9411	965.875 ± 0.75	1520 ± 2.3
